Values quoted from earlier work as cited in US20240044899A1, “BIOMARKERS FOR FIMEPINOSTAT THERAPY” (Curis, Inc, priority 2021, published 2024).

Tested on: MYC-altered DLBCL/HGBL patients
Settings: Prospective phase 2; MYC IHC >40%; sample size 47; cited from earlier work

Question: For O=C(/C=C\n1cnc(-c2cc(C(F)(F)F)cc(C(F)(F)F)c2)n1)NNc1cnccn1 [Selinexor, reference compound], which ORR is on record?
Answer: 13%
